Measured values from paper PMC7129073 (Clinical Microbiology and Infection, 2015).
Values after ≈ are worked out from the molar mass of the structure shown. “Also recorded” adds a separate entry of the source. Marks after values point to notes of the source that are not given here.

Columns and labels:
S. aureus (MS) = assay: MIC, NCCLS methods; assay type: cell-based; conditions: Staphylococcus aureus
S. progenies = assay: MIC, NCCLS methods; assay type: cell-based; conditions: Streptococcus pyogenes
M. catarrhalis = assay: MIC, NCCLS methods; assay type: cell-based; conditions: Moraxella catarrhalis
E. faecium = assay: MIC, NCCLS methods; assay type: cell-based; conditions: Enterococcus faecium
B. pertussis = assay: MIC, NCCLS methods; assay type: cell-based; conditions: N=10
Streptococcus spp = assay: MIC, NCCLS methods; assay type: cell-based
E. faecalis = assay: MIC, NCCLS methods; assay type: cell-based; conditions: Enterococcus faecalis
A. haemolyticum = assay: MIC, NCCLS methods; assay type: cell-based; conditions: N=9
S. aureus (MR) = assay: MIC, NCCLS methods; assay type: cell-based; conditions: Staphylococcus aureus
H. parainfluenzae = assay: MIC, NCCLS methods; assay type: cell-based; conditions: Haemophilus parainfluenzae
H. influenzae = assay: MIC, NCCLS methods; assay type: cell-based; conditions: Haemophilus influenzae
[1] = tested on: methicillin susceptible Staphylococcus aureus; assay: NCCLS agar dilution MIC; assay type: cell-based; conditions: Staphylococcus aureus
S. pneumoniae = assay: MIC, NCCLS methods; assay type: cell-based; conditions: Streptococcus pneumoniae
[2] = tested on: methicillin resistant Staphylococcus aureus; assay: NCCLS agar dilution MIC; assay type: cell-based; conditions: Staphylococcus aureus
N meningitidis = assay: MIC, NCCLS methods; assay type: cell-based
[3] = tested on: E. coli (TEM 9 transformant); assay: NCCLS agar dilution MIC; assay type: cell-based; conditions: Escherichia coli, n=1 per table line (three lines)
Acinetobacter = assay: Disk diffusion; assay type: cell-based; conditions: 37 isolates selected as resistant to beta-lactams
K. pneumoniae = assay: E-test susceptibility; assay type: cell-based, Klebsiella pneumoniae
[4] = tested on: inducible Enterobacteriaceae; assay: SMART 2003, intraabdominal isolates; assay type: cell-based
Escherichia coli (ECO) = assay: Broth microdilution; assay type: cell-based; conditions: 2001
Klebsiella = assay: SMART 2003 Europe, microdilution; assay type: cell-based, Klebsiella spp.; conditions: 341 isolates
[5] = tested on: Morganella morganii (ceftazidime R); assay: NCCLS agar dilution MIC; assay type: cell-based; set-up: unit not given beside the values; conditions: n=2
P. aeruginosa = assay type: cell-based, Pseudomonas aeruginosa
K. oxytoca = assay: E-test susceptibility; assay type: cell-based, Klebsiella oxytoca
Escherichia coli = assay: Vitek 2 susceptibility, urine isolates of children; assay type: cell-based
[6] = tested on: Pseudomonas putida clinical isolates; assay: Agar dilution MIC; assay type: cell-based
Pseudomonas aeruginosa = assay: MIC, strains from cystic fibrosis patients; conditions: by MIC
[7] = tested on: E. coli (OXA 5 transformant); assay: NCCLS agar dilution MIC; assay type: cell-based; conditions: Escherichia coli
E. coli [8] = assay: E-test susceptibility; assay type: cell-based, Escherichia coli
Enterobacter spp = assay: E-test susceptibility; assay type: cell-based
[9] = tested on: E. coli (TEM 10 transformant); assay: NCCLS agar dilution MIC; assay type: cell-based; conditions: Escherichia coli
E. coli [10] = assay: SMART 2003 Europe, microdilution; assay type: cell-based, Escherichia coli; conditions: 1106 isolates
Enterobacteriaceae = assay: SMART 2003 Europe, microdilution; assay type: cell-based; conditions: 1948 isolates
[11] = tested on: P. aeruginosa strains from CF sputa; assay: O-serotyping; assay type: cell-based, Pseudomonas aeruginosa; conditions: exposure to 1/2–1/16 MIC (ceftazidime) or 1/2–1/8 MIC (ciprofloxacin)
[12] = tested on: Citrobacter freundii (ceftazidime R); assay: NCCLS agar dilution MIC; assay type: cell-based; conditions: n=6

## CC[C@H]1OC(=O)[C@H](C)[C@@H](O[C@H]2C[C@@](C)(OC)[C@@H](O)[C@H](C)O2)[C@H](C)[C@@H](O[C@@H]2O[C@H](C)C[C@H](N(C)C)[C@H]2O)[C@](C)(O)C[C@@H](C)C(=O)[C@H](C)[C@@H](O)[C@]1(C)O [Erythromycin A, erythromycin A]
S. aureus (MS)
  MIC50: 0.25 µg/mL (≈ 0.341 µM)
  MIC90: > 64 µg/mL
S. progenies
  MIC50: > 64 µg/mL
  MIC90: > 64 µg/mL
M. catarrhalis
  MIC50: 0.12 µg/mL (≈ 0.164 µM)
  MIC90: 0.12 µg/mL (≈ 0.164 µM)
E. faecium
  MIC50: > 64 µg/mL
  MIC90: > 64 µg/mL
B. pertussis
  MIC range: 0.06 to 0.12 µg/mL
Streptococcus spp
  MIC50: 0.06 µg/mL (≈ 0.0818 µM)
  MIC90: 0.12 µg/mL (≈ 0.164 µM)
E. faecalis
  MIC50: > 64 µg/mL
  MIC90: > 64 µg/mL
A. haemolyticum
  MIC range: ≤0.015-0.03 ^* mg/L
S. aureus (MR)
  MIC50: > 64 µg/mL
  MIC90: > 64 µg/mL
H. parainfluenzae
  MIC50: 2 µg/mL (≈ 2.73 µM)
  MIC90: 8 µg/mL (≈ 10.9 µM)
H. influenzae
  MIC50: 4 µg/mL (≈ 5.45 µM)
  MIC90: 8 µg/mL (≈ 10.9 µM)
[1]
  MIC50: 0.25 µg/mL (≈ 0.341 µM)
  MIC90: > 64 µg/mL
S. pneumoniae
  MIC50: > 32 µg/mL
  MIC90: > 32 µg/mL
[2]
  MIC50: > 64 µg/mL
  MIC90: > 64 µg/mL
N meningitidis
  MIC50: 0.12 µg/mL (≈ 0.164 µM)
  MIC90: 0.25 µg/mL (≈ 0.341 µM)

## CC(C)(O/N=C(\C(=O)N[C@@H]1C(=O)N2C(C(=O)[O-])=C(C[n+]3ccccc3)CS[C@H]12)c1csc(N)n1)C(=O)O [ceftazidime]
[3]
  MIC: > 128 µg/mL
Acinetobacter
  resistant isolates: 56.8%
K. pneumoniae; ICU
  Susceptible isolates: 98%
K. pneumoniae; non ICU
  Susceptible isolates: 100%
[4]; A/P (N = 200)
  % susceptible: 59%
[4]; EU (N = 354)
  % susceptible: 75%
[4]; LA (N=113)
  % susceptible: 69%
[4]; NA (N = 163)
  % susceptible: 71%
Escherichia coli (ECO); NAL-resistant isolates
  susceptible: 93.3%
Escherichia coli (ECO); NAL-susceptible isolates
  susceptible: 99.0%
Klebsiella
  per cent susceptible: 94%
[5]
  MIC (two isolates): 16/64
P. aeruginosa
  resistant: 32%
K. oxytoca; ICU
  Susceptible isolates: 100/100%
K. oxytoca; non ICU
  Susceptible isolates: 100/100%
Escherichia coli; paediatric surgical unit (PSU)
  susceptibility rate: 39%
Escherichia coli; paediatric units (PU)
  susceptibility rate: 95%
[6]
  MIC: > 128 µg/mL
Pseudomonas aeruginosa
  Susceptible isolates: 84%
[7]
  MIC: 64 µg/mL (≈ 117 µM)
E. coli [8]; ICU, SRGA breakpoints, tigecycline tentative S ≤2 μg/ml
  Susceptible isolates: 98%
E. coli [8]; non ICU
  Susceptible isolates: 99%
Enterobacter spp; ICU
  Susceptible isolates: 75%
Enterobacter spp; non ICU
  Susceptible isolates: 89%
[9]
  MIC: > 128 µg/mL
E. coli [10]
  per cent susceptible: 96%
Enterobacteriaceae
  per cent susceptible: 92%
[11]
  change of agglutination type of nine monoagglutinable strains: seven strains have become auto-agglutinable; also recorded: two strains have become polyagglutinable

## C[C@H]1[C@H](NC(=O)/C(=N\OC(C)(C)C(=O)O)c2csc(N)n2)C(=O)N1S(=O)(=O)O [aztreonam]
[5]
  MIC (two isolates): 2/8
[12]
  MIC range: 4 to 64 µg/mL
[7]
  MIC: 16 µg/mL (≈ 36.7 µM)
[9]
  MIC: 32 µg/mL (≈ 73.5 µM)
